The values that follow come from patent US9987299B2, “Methods of improving RNAi in well-differentiated airway epithelia” (University of Iowa Research Foundation, priority 2014, dated 2018).

One data set has as its system CFTR channel activity. Nature of the data set: Transepithelial short-circuit current and conductance in HAE. It is filed as cell-based, human. To be noted: control epithelia with or without PAF, or PAF and NC1 treated cells; sequential addition of agents.
The subject of data set [1] is Human HPRT mRNA. Briefly: HPRT mRNA silencing by DsiRNA-Transductin in well-differentiated HAE (RT-qPCR). It is filed as cell-based. The procedure:
FIG. 1. […] (a) Well-differentiated HAE cultures grown at the ALI were incubated in adding HPRT-targeting or control NC1 DsiRNA (250 nM) formulated with Transductin containing 0.1 or 0.01 mg LOS (HPRT-targeting DsiRNAs) or 0.1 mg LOS (NC1 DsiRNA). After 4 hours, the apical surface was rinsed and 24 hours later, target RNA levels quantified by RT-qPCR. All mRNA levels were normalized to NC1-treated samples. Mean levels were calculated from three biological replicates, each done in triplicate. ***p<0.001, **p<0.01 (Student's t-test). […] Samples were normalized to NC1-treated cells. ***p<0.001, **p<0.01 (Student's t-test). […] PAFRa was present throughout transfection in cells pre-treated with the reagent. Cells were harvested and RNA quantified 24 hrs later. Samples were normalized to NC1-treated cells. **p<0.01 (Student's t-test).
FIG. 3. Spiperone improves RNAi responses in DsiRNA transduced cells. HAE were pre-treated with various small molecules at the concentration indicated. The drugs were added to the apical surface and the basolateral media for 6 hours. Both surfaces were then washed and HPRT or NC1 DsiRNA formulated with Transductin added to the apical surface. The cells were washed after 4 hours, and RT-qPCR done on cell lysates harvested 24 hours later.
Human airway epithelial cells were obtained from trachea and bronchi of lungs removed for organ donation from non-CF individuals. Cells were isolated by enzyme digestion as previously described. Following enzymatic dispersion, cells were seeded at a density of 5×10^5 cells/cm^2 onto collagen-coated, 0.6 cm^2 semi permeable membrane filters (Millipore polycarbonate filters; Millipore Corp., Bedford, Mass.). The cells were maintained at 37° C. in a humidified atmosphere of 5% CO2 air. Twenty-four hours after plating, the apical media was removed and the cells were maintained at an air-liquid interface (ALI) to allow differentiation of the epithelium. The culture medium consisted of 1:1 ratio mix of Dulbecco's modified Eagle's medium (DMEM)/Ham's F12, 5% Ultroser G (Biosepra S A, Cedex, France), 100 U/ml penicillin, 100 μg/ml streptomycin, 1% nonessential amino acids and 0.12 U/ml insulin. Studies were performed on well-differentiated epithelia approximately 4 to 6 weeks after initiation of the ALI cultures conditions. HEp-2 cells were maintained in MEM substituted with 10% fetal bovine serum and 100 U/ml penicillin.
PAF was purchased from Sigma-Aldrich. The reagent was reconstituted in ethanol and used in the experiment at a concentration of 200 nM or as described in the figures. PAF was added to the transfection mixture at the apical surface as well as to the basolateral media. PAFRa (WEB 2086) was purchased from Sigma-Aldrich. […] The reagent was incubated with the cells throughout the transfection period.
All the small molecules tested were purchased from Sigma-Aldrich. The chemicals were reconstituted in appropriate solutions as recommended by the manufacturer. The epithelia were pre-treated with drugs for 6 hours at concentrations used in the CMAP study or noted in the published literature. Following drug treatment, the epithelia were transduced with DsiRNA as described above.
For well-differentiated airway epithelia, transfection was performed mostly according to the manufacturer's protocol. In all cases, the apical surface of epithelia was rinsed twice with PBS before adding the transfection mixture to the apical surface. DsiRNAs were used at a concentration of 250 nM. The mixture was left on the cells for 4 hours after which the medium was removed, the apical surface rinsed with PBS and the cells incubated further for 24 hours. For all experiments, a minimum of 3 biological replicates, in triplicate, were done.
Total RNA was isolated using SV96 RNA isolation kit (Promega, Madison, Wis.), according to manufacturer's protocol. […]
A general note: In qPCR the cycle at which signal appears reflects the starting amount.

The subject of data set [2] is Human HPRT mRNA. To be noted: Transductin alone or combined with enhancers of macropinocytosis; reference [17]; cited from earlier work.
The conditions of data set [3]: reference [38]; cited from earlier work.
A further data set has as its system CFTR protein. Briefly: CFTR protein levels, immunoprecipitation and immunoblot with densitometry in HAE. It is filed as cell-based, human. The procedure:
(§1) FIG. 4. […] Alternatively, spiperone was applied apically and basolaterally to well-differentiated HAE for 6 hours, and then removed by rinsing before incubation for 4 hours with CFTR-targeting or NC1 DsiRNAs complexed with Transductin. In both cases, 24 hours after transfection, and RNA levels quantified by RT-qPCR. (b) A representative immunoblot from similarly treated wells, but cells were lysed and proteins visualized after immunoprecipitation with anti-CFTR antibody. Alpha-tubulin was used as a loading control. (c) Densitometry readings of immunoblots with results normalized to NC1 treated samples. In all cases, data are from 3 biological replicates and are mean±SD. ***p<0.001, **p<0.01 (Student's t-test).
HAE were rinsed with PBS and lysed in RIPA buffer (1% NP-40, 0.5% sodium deoxycholate, 0.1% SDS, 50 mM Tris, protease inhibitors [complete; mini, EDTA-free; Roche Biochemicals, Indianapolis, Ind.]) for 30 minutes at 4° C. The lysate were centrifuged in a table top centrifuge at 14,000 rpm for 20 minutes at 4° C. The supernatant was quantified by BCA protein assay kit (Pierce, Rockford, Ill.). Thirty micrograms of protein per lane was separated on a 10% Tris-HCL Criterion precast gel (Bio-Rad, Hercules, Calif.) for western blot analysis. The protein was transferred to Polyvinylidene difluoride membrane and then was probed with goat anti-RSV antibody purchased from Meridian Life Sciences (Memphis, Tenn.). The membrane was imaged, and then stripped with Restore Western Blot Stripping Buffer (Thermo Scientific, Lafayette, Colo.) for 15 minutes. The membrane was rinsed with Tris-buffered saline-Tween (TBS-T) and blocked in 5% bovine serum albumin (Research Products International Corp, Mt. Prospect, Ill.). The membrane was then reprobed with α-tubulin (Sigma-Aldrich).
Background: In western blotting, separated proteins are transferred to a membrane and probed.

For another data set, the system named is Human CFTR mRNA. Briefly: CFTR mRNA silencing by CFTR DsiRNA-Transductin in well-differentiated HAE (RT-qPCR). It is filed as cell-based. The note with it: CFTR DsiRNA with simultaneous PAF treatment or spiperone pre-treatment. The procedure: as §1
For well-differentiated airway epithelia, transfection was performed mostly according to the manufacturer's protocol. […]
Total RNA was isolated using SV96 RNA isolation kit (Promega, Madison, Wis.), according to manufacturer's protocol. […] One-fifteenth of the cDNA was then amplified and analyzed by using the 5′-nuclease assay in a 7900 Real Time PCR System (Applied Biosystems, Foster city, CA) using primer-probe pairs reaction buffer and Immolase DNA polymerase (Bioline, Taunton, Mass.). […] Absolute quantification of an mRNA target sequence within an unknown sample was determined by reference to a standard curve. […]

For `CC(C)Cn1c(=O)n(C)c(=O)c2[nH]cnc21` [isobutylmethylxantine (IBMX), isobutylmethylxantine], the “cAMP-activated transepithelial short-circuit current (Isc and ΔIsc) and conductance (Gt)” value with CFTR channel activity was “increased”.
On the same count and under the same terms, in the case of `O=C(CNc1ccc2ccccc2c1)N/N=C/c1cc(Br)c(O)c(Br)c1O` [GlyH-101] it was “decreased both values”.
For `Cc1nnc2n1-c1sc(CCC(=O)N3CCOCC3)cc1C(c1ccccc1Cl)=NC2` [WEB2086], in the data set on Human HPRT mRNA [1] (1 μM PAFRa), the “inhibition of HPRT silencing in cells transduced with LOS or PAF” value is given as “partially inhibited”. Besides, in the data set on Human HPRT mRNA [1] (100 μM PAFRa, pre- or post-treatment), the “inhibition of HPRT silencing of LOS- or PAF-assisted transduction” value is “completely inhibited”.
Take “epidermal growth factor (NSDSECPLSHDGYCLHDGVCMYIEALDKYACNCVVGYIGERCQYRDLKWWELR; Epidermal growth factor; UniProt P01133 971-1023, looked up) [EGF, enhancer of macropinocytosis]”: the “gene silencing in well differentiated HAE with Transductin-DsiRNA, previously observed” value with Human HPRT mRNA [2] was “very modest knockdown”.
Turning to `CCCCCCCCCCCCCC(=O)O[C@@H]1[C@@H](C)[C@@]2(O)[C@@H](C=C(CO)C[C@]3(O)C(=O)C(C)=C[C@@H]23)[C@@H]2C(C)(C)[C@]12OC(C)=O` [phorbol ester], the toxicity entry in data set [3] was “toxic and unsuitable for repeated applications or use in vivo”. For the same compound, the “gene silencing in well differentiated HAE with Transductin-DsiRNA plus phorbol ester” value with Human HPRT mRNA [1] (applicant's unpublished data) is listed as “better silencing”.
On to `O=C(CCCN1CCC2(CC1)C(=O)NCN2c1ccccc1)c1ccc(F)cc1` [Spiperone], for which the “CFTR protein levels compared to controls” value in the data set on CFTR protein (PAF or spiperone and CFTR DsiRNA-Transductin, immunoprecipitation, western blot) is “reduced CFTR protein levels”. Further, the “fully glycosylated CFTR band C” value in the data set on CFTR protein (densitometry, normalized to NC1 treated samples) is given as “significantly decreased”. Moreover, the “silencing of CFTR mRNA levels” value in the data set with Human CFTR mRNA is recorded as “approximately 30%”. Besides, the “spiperone dose-response on silencing” value with Human HPRT mRNA [1] (increasing doses, 6 hours pretreatment (FIG. 9)) is “marginal increases in silencing with increasing doses”. The “silencing of HPRT mRNA levels” value in the data set on Human HPRT mRNA [1] (spiperone 10 μM pretreatment before DsiRNA transduction) was 25%.
